Tests used:
[1] = test system: hyperhidrosis; settings: in vivo; cited from earlier work
[2] = test system: hyperhidrosis; settings: human, in vivo
[3] = test system: hyperhidrosis; settings: in vivo; cited from earlier work; remark: listed apart in the source
[4] = test system: gustatory sweating associated with diabetic autonomic neuropathy; settings: in vivo; cited from earlier work
[5] = in vivo; cited from earlier work

Molecule | benefit in hyperhidrosis [1] | duration of effect [1] | perspiration associated with the hyperhidrosis [2] | unwanted perspiration at the location where the glycopyrrolate is applied [2] | duration of reduction of the hyperhidrosis [3] | side effects [3] | gustatory sweating [4] | side effects [5]
botulinum A neurotoxin [BOTOX] | statistically significant benefit | several months | – | – | – | – | – | –
C[N+]1(C)CCC(OC(=O)C(O)(c2ccccc2)C2CCCC2)C1.[Br-] (centres unmarked) [glycopyrrolate] | – | – | reduction in the perspiration | reduces the unwanted perspiration | up to 4 weeks | abdominal discomfort | prevented the gustatory sweating | few side effects
